Source: patent publication US20250230193A1, “CYCLIC COMPOUND HAVING SELECTIVE KRAS INHIBITORY EFFECT ON HRAS AND NRAS” (CHUGAI SEIYAKU KABUSHIKI KAISHA, priority 2022, published 2025)

Columns and labels:
[1] = biological target: GDP-bound HRAS wild-type protein (Homo sapiens, UniProt P01112); assay: Binding to HRAS by surface plasmon resonance (SPR), Single Cycle Kinetics; conditions: KD ratio HRAS/KRAS, SPR
[2] = biological target: GDP-bound NRAS wild-type protein (Homo sapiens, UniProt P01111); assay: Binding to NRAS by surface plasmon resonance (SPR), Single Cycle Kinetics; conditions: KD ratio NRAS/KRAS, SPR
GDP-bound NRAS wild-type protein, sequence (P01111 whole entry): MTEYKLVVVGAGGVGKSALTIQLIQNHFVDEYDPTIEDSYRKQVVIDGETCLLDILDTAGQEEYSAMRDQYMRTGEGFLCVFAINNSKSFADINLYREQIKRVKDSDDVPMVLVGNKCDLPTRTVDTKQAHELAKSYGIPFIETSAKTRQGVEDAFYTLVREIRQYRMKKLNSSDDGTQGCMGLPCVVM

GDP-bound HRAS wild-type protein, sequence (P01112 whole entry): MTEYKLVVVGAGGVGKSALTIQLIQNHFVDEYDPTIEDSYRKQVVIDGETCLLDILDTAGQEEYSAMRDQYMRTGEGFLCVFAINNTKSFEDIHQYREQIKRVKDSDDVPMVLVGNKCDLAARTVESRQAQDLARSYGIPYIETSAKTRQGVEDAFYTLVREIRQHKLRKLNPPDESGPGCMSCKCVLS

Row | SMILES | HRAS/KRAS (ratio of KD value with respect to GDP-bound HRAS wild-type protein to KD value with respect to KRAS) [1] | NRAS/KRAS (ratio of KD value with respect to GDP-bound NRAS wild-type protein to KD value with respect to KRAS) [2]
1 | CCO[C@@H]1C[C@H]2C(=O)NC3(CCC3)C(=O)N(C)[C@@H](C3CCCC3)C(=O)N(C)[C@H](C(=O)N(C)C)CC(=O)N(C)[C@@H](CC(C)(C)C)C(=O)N[C@@H]([C@@H](C)CC)C(=O)N(C)CC(=O)N(C)[C@H]3CCCCCN(C3=O)[C@@H](Cc3ccc(C(F)(F)F)cc3)C(=O)N(C)CC(=O)N[C@@H](CCc3cc(F)c(C(F)(F)F)c(F)c3)C(=O)N2C1 [PP0669] | B (a compound having 3 or more and less than 10 is denoted as B) | B (a compound having 3 or more and less than 10 is denoted as B)
2 | CCO[C@@H]1C[C@H]2C(=O)NC3(CCC3)C(=O)N(C)[C@@H](C3CCCC3)C(=O)N(C)[C@H](C(=O)N(C)C)CC(=O)N(C)[C@@H](CC3CCCC3)C(=O)N[C@@H]([C@@H](C)CC)C(=O)N(C)CC(=O)N(C)[C@H]3CCCCCN(C3=O)[C@@H](Cc3ccc(C(F)(F)F)cc3)C(=O)N(C)CC(=O)N[C@@H](CCc3cc(F)c(C(F)(F)F)c(F)c3)C(=O)N2C1 [PP0670] | B (a compound having 3 or more and less than 10 is denoted as B) | B (a compound having 3 or more and less than 10 is denoted as B)
3 | CCO[C@@H]1C[C@H]2C(=O)NC3(CCC3)C(=O)N(C)[C@@H](C3CCCC3)C(=O)N(C)[C@H](C(=O)N(C)C)CC(=O)N(C)[C@@H](CC3CCCCC3)C(=O)N[C@@H]([C@@H](C)CC)C(=O)N(C)CC(=O)N(C)[C@H]3CCCCCN(C3=O)[C@@H](Cc3ccc(C(F)(F)F)cc3)C(=O)N(C)CC(=O)N[C@@H](CCc3cc(F)c(C(F)(F)F)c(F)c3)C(=O)N2C1 [PP0671] | B (a compound having 3 or more and less than 10 is denoted as B) | B (a compound having 3 or more and less than 10 is denoted as B)
4 | CCO[C@@H]1C[C@H]2C(=O)NC3(CCC3)C(=O)N(C)[C@@H](C3CCCC3)C(=O)N(C)[C@H](C(=O)N(C)C)CC(=O)N(C)[C@@H](Cc3ccccc3)C(=O)N[C@@H]([C@@H](C)CC)C(=O)N(C)CC(=O)N(C)[C@H]3CCCCCN(C3=O)[C@@H](Cc3ccc(C(F)(F)F)cc3)C(=O)N(C)CC(=O)N[C@@H](CCc3cc(F)c(C(F)(F)F)c(F)c3)C(=O)N2C1 [PP0672] | B (a compound having 3 or more and less than 10 is denoted as B) | B (a compound having 3 or more and less than 10 is denoted as B)
5 | CCO[C@@H]1C[C@H]2C(=O)NC3(CCC3)C(=O)N(C)[C@@H](C3CCCC3)C(=O)N(C)[C@H](C(=O)N(C)C)CC(=O)N(C)[C@@H](Cc3cccnc3)C(=O)N[C@@H]([C@@H](C)CC)C(=O)N(C)CC(=O)N(C)[C@H]3CCCCCN(C3=O)[C@@H](Cc3ccc(C(F)(F)F)cc3)C(=O)N(C)CC(=O)N[C@@H](CCc3cc(F)c(C(F)(F)F)c(F)c3)C(=O)N2C1 [PP0673] | B (a compound having 3 or more and less than 10 is denoted as B) | B (a compound having 3 or more and less than 10 is denoted as B)
6 | CCO[C@@H]1C[C@H]2C(=O)NC3(CCC3)C(=O)N(C)[C@@H](C3CCCC3)C(=O)N(C)[C@H](C(=O)N(C)C)CC(=O)N(C)[C@@H](COC)C(=O)N[C@@H]([C@@H](C)CC)C(=O)N(C)CC(=O)N(C)[C@H]3CCCCCN(C3=O)[C@@H](Cc3ccc(C(F)(F)F)cc3)C(=O)N(C)CC(=O)N[C@@H](CCc3cc(F)c(C(F)(F)F)c(F)c3)C(=O)N2C1 [PP0674] | B (a compound having 3 or more and less than 10 is denoted as B) | B (a compound having 3 or more and less than 10 is denoted as B)
7 | CCO[C@@H]1C[C@H]2C(=O)NC3(CCC3)C(=O)N(C)[C@@H](C3CCCC3)C(=O)N(C)[C@H](C(=O)N(C)C)CC(=O)N(C)[C@@H](CCOC)C(=O)N[C@@H]([C@@H](C)CC)C(=O)N(C)CC(=O)N(C)[C@H]3CCCCCN(C3=O)[C@@H](Cc3ccc(C(F)(F)F)cc3)C(=O)N(C)CC(=O)N[C@@H](CCc3cc(F)c(C(F)(F)F)c(F)c3)C(=O)N2C1 [PP0675] | B (a compound having 3 or more and less than 10 is denoted as B) | B (a compound having 3 or more and less than 10 is denoted as B)
8 | CCO[C@@H]1C[C@H]2C(=O)NC3(CCC3)C(=O)N(C)[C@@H](C3CCCC3)C(=O)N(C)[C@H](C(=O)N3CCOCC3)CC(=O)N(C)[C@@H](CC)C(=O)N[C@@H]([C@@H](C)CC)C(=O)N(C)CC(=O)N(C)[C@H]3CCCCCN(C3=O)[C@@H](Cc3ccc(C(F)(F)F)cc3)C(=O)N(C)CC(=O)N[C@@H](CCc3cc(F)c(C(F)(F)F)c(F)c3)C(=O)N2C1 [PP0678] | B (a compound having 3 or more and less than 10 is denoted as B) | B (a compound having 3 or more and less than 10 is denoted as B)
9 | CCC[C@H]1C(=O)N[C@@H]([C@@H](C)CC)C(=O)N(C)CC(=O)N(C)[C@H]2CCCCCN(C2=O)[C@@H](Cc2ccc(C(F)(F)F)cc2)C(=O)N(C)CC(=O)N[C@@H](CCc2cc(F)c(C(F)(F)F)c(F)c2)C(=O)N2C[C@H](OCC)C[C@H]2C(=O)NC2(CCC2)C(=O)N(C)[C@@H](C2CCCC2)C(=O)N(C)[C@H](C(=O)N2CCOCC2)CC(=O)N1C [PP0679] | B (a compound having 3 or more and less than 10 is denoted as B) | B (a compound having 3 or more and less than 10 is denoted as B)
10 | C#CC[C@H]1C(=O)N[C@@H]([C@@H](C)CC)C(=O)N(C)CC(=O)N(C)[C@H]2CCCCCN(C2=O)[C@@H](Cc2ccc(C(F)(F)F)cc2)C(=O)N(C)CC(=O)N[C@@H](CCc2cc(F)c(C(F)(F)F)c(F)c2)C(=O)N2C[C@H](OCC)C[C@H]2C(=O)NC2(CCC2)C(=O)N(C)[C@@H](C2CCCC2)C(=O)N(C)[C@H](C(=O)N2CCOCC2)CC(=O)N1C [PP0681] | B (a compound having 3 or more and less than 10 is denoted as B) | B (a compound having 3 or more and less than 10 is denoted as B)
11 | CCO[C@@H]1C[C@H]2C(=O)NC3(CCC3)C(=O)N(C)[C@@H](C3CCCC3)C(=O)N(C)[C@H](C(=O)N3CCOCC3)CC(=O)N(C)[C@@H](CC3CC3)C(=O)N[C@@H]([C@@H](C)CC)C(=O)N(C)CC(=O)N(C)[C@H]3CCCCCN(C3=O)[C@@H](Cc3ccc(C(F)(F)F)cc3)C(=O)N(C)CC(=O)N[C@@H](CCc3cc(F)c(C(F)(F)F)c(F)c3)C(=O)N2C1 [PP0682] | B (a compound having 3 or more and less than 10 is denoted as B) | B (a compound having 3 or more and less than 10 is denoted as B)
